Source: PubChem BioAssay AID1671416
pIC50: −log10 of the molar value.

Target: Proto-oncogene tyrosine-protein kinase Src (Homo sapiens) (UniProt P12931)
Test: PubChem AID 1671416
Settings: Z'-LYTE FRET kinase activity, recombinant SRC

Sequence of Proto-oncogene tyrosine-protein kinase Src (Homo sapiens) (P12931 whole entry, looked up): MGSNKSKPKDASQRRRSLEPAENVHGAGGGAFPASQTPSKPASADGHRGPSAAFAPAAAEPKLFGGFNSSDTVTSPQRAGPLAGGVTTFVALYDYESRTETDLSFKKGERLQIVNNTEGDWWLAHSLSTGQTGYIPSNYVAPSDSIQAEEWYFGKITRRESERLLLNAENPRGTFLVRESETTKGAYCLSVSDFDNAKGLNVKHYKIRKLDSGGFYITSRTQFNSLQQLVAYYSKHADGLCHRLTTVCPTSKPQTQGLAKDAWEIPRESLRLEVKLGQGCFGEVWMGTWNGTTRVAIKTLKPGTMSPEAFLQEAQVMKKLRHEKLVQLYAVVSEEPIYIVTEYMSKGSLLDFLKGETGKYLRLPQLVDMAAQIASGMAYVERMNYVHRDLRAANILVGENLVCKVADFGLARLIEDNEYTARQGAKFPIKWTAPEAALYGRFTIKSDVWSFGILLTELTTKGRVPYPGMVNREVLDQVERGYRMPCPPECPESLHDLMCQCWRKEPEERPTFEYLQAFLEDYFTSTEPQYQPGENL

Molecule `COc1cc2ncnc(Nc3cccc(Cl)c3)c2cc1OC` has a pIC50 of 5.61.
